Laboratory results published in PMC5318461 (Frontiers in Microbiology, 2017).
Like-named read-outs stand apart in the source and are kept apart here. Numbered stars: 1 amine (or outer) side, 2 acyl side, 3 side chain; on linkers, the order of the positions; unused ones are H or OH. Bridge positions count the residues as written; N and C are the ends. Square brackets hold non-standard residues; d marks the D form. Peptide text beside a SMILES is read from it. I, II: the chains in the order shown. Actinocin(9to1) = Cc1c2oc3c(C)ccc(C(=O)[*:1])c3nc-2c(C(=O)[*:2])c(N)c1=O; NMeV = CN[C@H](C(=O)O)C(C)C; Sar = CNCC(=O)O

Assays:
[1] = tested on: L. amazonensis promastigote; parameters: method as in Britta et al. (2014); conditions: ref Britta et al. (2014); cited from earlier work
[2] = tested on: peritoneal macrophages infected with L. amazonensis; assay: Nitric oxide measurement (DAF-FM DA) on infected macrophages; assay type: cell-based, BALB/c mice; conditions: IC50 and IC90, 48 h, 34°C
Protocol: Furthermore, the activity of these drugs against L. amazonensis intracellular amastigotes was also evaluated. For this, intraperitoneal macrophages were harvested from the males BALB/c mice, by injection of cold phosphate-saline buffer (PBS) plus FCS 3% inner the peritoneal cavity. After centrifugation, a suspension of 5 × 10^5 macrophages in RPMI was placed on glass coverslips in 24-wells microplate and incubated during 2 h, at 37°C and 5% CO2 atmosphere, for cellular adhesion. After this period, the wells were washed and the macrophages were infected with L. amazonensis promastigotes in stationary phase (5–6 days) at a ratio of 7 parasites/1 mammalian cell, during 4 h, at 34°C and 5% CO2 tension and then, the tested compounds were added during 48 h ([Kaplum et al., 2016]). […] Then, a total of 200 macrophages were counted under light microscope, distinguishing infected cells and amastigote parasites. Thereby, the survival index (SI = infected cells percentage × amastigote average per infected macrophage) was calculated considering 100% of survival for the untreated negative control (NC). […]
Promastigote forms and infected macrophages were incubated at 25°C for 72 h and 34°C for 48 h, respectively. […] Fluorescence was measured on fluorometer Perkin-Elmer Victor X3, at λex = 495 nm and λem = 515 nm.

[3] = tested on: L. amazonensis promastigote; assay: Detection of lipid droplets using Nile Red dye (fluorometry); assay type: cell-based, Leishmania amazonensis
Protocol: Parasites were prepared and standardize in accordance to item 2.8.1. Next, 5 μL of Nile Red (Sigma–Aldrich®) 1 mg/mL methanol were added to treated parasites and incubated during 30 min, at dark and room temperature. Fluorescence was measured on Perkin-Elmer Victor X3 fluorometer, at λex = 485 nm e λem = 535 ([Greenspan et al., 1985]). Nile Red is a phenoxazone dye that fluoresces intensely at yellow–gold color in the presence of triacylglycerols, cholesterol, or cholesterol esters, considered neutral lipids ([Fowler and Greenspan, 1985]).

[4] = tested on: Leishmania amazonensis axenic amastigote; assay: In vitro activity against L. amazonensis axenic amastigotes (growth inhibition by cell counting; alone and checkerboard combination); assay type: cell-based; conditions: isolated drug, 72 h, 32°C, ± SD
Protocol: Axenic amastigote forms were obtained from L. amazonensis promastigotes. For this, promastigote forms in phase log of growth were cultivated in Warren’s medium, pH 7.2, supplemented with 20% FCS and incubated at 25°C, during 48 h. Next, the parasites were maintained at 30°C, for 24 h, and at 32°C until differentiation in amastigote forms. Axenic amastigotes were maintained in Schneider insect’s medium (Sigma–Aldrich®), pH 4.6, supplemented with 20% of FCS, at 32°C ([Ueda-Nakamura et al., 2001]).

non-infected macrophages = assay: Nitric oxide measurement (DAF-FM DA) on non-infected macrophages; assay type: cell-based; conditions: IC50 and IC90
[5] = tested on: Leishmania amazonensis promastigote; assay: In vitro activity against L. amazonensis promastigotes (growth inhibition by cell counting; drugs alone and in checkerboard combination); assay type: cell-based; conditions: isolated drug; for IC50: 72 h, 25°C, ± SD; for IC90: promastigotes
Protocol: Leishmania amazonensis MHOM/BR/75/Josefa strain was isolated from a human case of cutaneous leishmaniasis by Dr. Cesar A. Cuba, at University of Brasilia, Brazil ([Saraiva et al., 1983]; [Cuba et al., 1985]). These promastigote parasites were maintained in Warren’s medium, consisting of brain heart infusion (Gibco®), hemin (Sigma–Aldrich®), and folic acid (Sigma–Aldrich®), pH 7.2, supplemented with 10% of fetal calf serum (FCS – Invitrogen®) and incubated at 25°C.
The same procedure was carried out with axenic amastigote forms, using 12-wells microplate. After incubation during 72 h, at 25 and 32°C for promastigote and axenic amastigote forms, respectively, viable cells were counted with hemocytometer supporting.
Briefly, promastigotes, axenic and intracellular amastigotes were prepared even as previously described (see the section In vitro Activity against L. amazonensis) as well the macrophages and erythrocytes, according to the section Cytotoxicity and Hemolysis Assays. […] Thus, the compounds were singly evaluated in the first row and column and the checkerboard model supported the drug combination in the other wells. Next, the parasites were added and, after incubation, as described above, it was possible to determine the IC50 for the association. Finding the behavior of each association, the CI was calculated from the formula:
CI=(IC50 compound A associated/IC50 compound A alone)+(IC50 compound B associated/IC50 compound B alone)
CI values lower, equal and greater than one indicate, respectively, synergistic, additive and antagonistic profile of association tested, according established by [Chou and Talalay (1984)] and [Chou (2010)].
(§1) Scanning electron microscopy was carried out to analyze the morphologic alterations on cell surface topography. […] After incubation for 72 h, at 25°C, the samples were fixed in 2.5% glutaraldehyde in 0.1 M sodium cacodylate buffer (Electron Microscopy Sciences – EMS®) for 24 h. It used poly-L-lysine (Electron Microscopy Sciences – EMS®) to promote the fixed parasites adhesion over coverslips, which were dehydrated with increasing concentration of ethanol (30, 40, 50, 60, 70, 80, 90, 95, 100% – Sigma–Aldrich®). The samples were critical-point-dried (Baltec SCD-030) in CO2 to remove any water trace, placed on appropriate stub to coat with gold alloy. The micrographs were obtained by analysis in Shimadzu SS-550 scanning electron microscope (SEM).

J774.A1 macrophages = assay: Cytotoxicity on J774.A1 macrophages (MTT; alone and checkerboard combination); assay type: cell-based, Murine; conditions: isolated drug, 48 h, ± SD, read-out: CC50 J774.A1 Macrophage
Source text: (§2) As positive control, it used Triton X (Synth®) surfactant. […] (2010)].

[6] = tested on: L. amazonensis promastigote; parameters: method as in Britta et al. (2014); conditions: ref Britta et al. (2014); cited from earlier work; remark: listed apart in the source
erythrocytes = assay: Hemolysis assay (hemoglobin release; alone and checkerboard combination); conditions: read-out: CC50 Erythrocytes; isolated drug; defibrinated sheep blood, 6% erythrocyte suspension, 2 h, 37°C; ± SD
Protocol: (§3) Assessing the possibility of drug-induced hemolysis, the hemolytic activity was evaluated in vitro from defibrinated sheep blood, commercially obtained (Laborclin; lot n° 51109038). Erythrocyte suspension at 6% was prepared by centrifugation in 2,000 × g, for 10 min and placed in 96-wells with the different concentrations of each compound. As positive control, it used Triton X (Synth®) surfactant. After 2 h at 37°C, all samples were centrifuged for 3 min, and the supernatant was harvested to verify the hemoglobin release by the absorbance measured in 540 nm.

[7] = tested on: L. amazonensis intracellular amastigotes; assay: Activity against L. amazonensis intracellular amastigotes in peritoneal macrophages (survival index; alone and checkerboard combination); assay type: cell-based, Leishmania amazonensis; conditions: isolated drug, 48 h, ± SD, read-out: IC50 Intracellular amastigote
Protocol: Furthermore, the activity of these drugs against L. amazonensis intracellular amastigotes was also evaluated. For this, intraperitoneal macrophages were harvested from the males BALB/c mice, by injection of cold phosphate-saline buffer (PBS) plus FCS 3% inner the peritoneal cavity. After centrifugation, a suspension of 5 × 10^5 macrophages in RPMI was placed on glass coverslips in 24-wells microplate and incubated during 2 h, at 37°C and 5% CO2 atmosphere, for cellular adhesion. After this period, the wells were washed and the macrophages were infected with L. amazonensis promastigotes in stationary phase (5–6 days) at a ratio of 7 parasites/1 mammalian cell, during 4 h, at 34°C and 5% CO2 tension and then, the tested compounds were added during 48 h ([Kaplum et al., 2016]). At the end of this period, the glass coverslips were subject to fixation with methanol during 10 min and stained with 10% Giemsa stain (GIBCO KaryoMax® Giemsa), for 40 min. Then, a total of 200 macrophages were counted under light microscope, distinguishing infected cells and amastigote parasites. Thereby, the survival index (SI = infected cells percentage × amastigote average per infected macrophage) was calculated considering 100% of survival for the untreated negative control (NC). It was subsequently possible to carry out the comparison with samples treated for IC50 calculation purposes.

[8] = tested on: L. amazonensis promastigote; assay: Transmission electron microscopy of treated promastigotes; assay type: cell-based, Leishmania amazonensis; conditions: IC50 and IC90, 72 h, 25°C
Protocol: In order to evaluate the ultrastructure changes in the treated parasites, promastigote forms were treated and fixed according described above. These samples were post-fixed with 1% OsO4 (Electron Microscopy Sciences – EMS®) and 0.8% potassium ferrocyanide (Electron Microscopy Sciences – EMS®), in the dark, during 60 min, at room temperature. This procedure increases the contrast to link with lipids. The samples were washed in 0.1 M sodium cacodylate buffer and dehydrated in increased concentration of acetone (50, 70, 80, 90, 95, 100% – Sigma–Aldrich®). All acetone content was replaced by cell diffusion for EPON^TM epoxy resin, gradually, and after 48 h, at 60°C, the resin was polymerized. Nanometric cuts (60–70 nm) were obtained on ultramicrotome (Power Tome X RMC Products), contrasted with 5% uranyl acetate (Electron Microscopy Sciences – EMS®) and 2% lead citrate (Electron Microscopy Sciences – EMS®). Finally, the samples were analyzed by transmission electron microscope (TEM) JEOL – JEM 1400.

[9] = tested on: L. amazonensis promastigote; assay: Volume analysis of promastigote forms, flow cytometry (FSC-H); assay type: cell-based, Leishmania amazonensis; conditions: 24 h; miltefosine 173.32 μM; BZTS + miltefosine 13.86 μM + 37.78 μM; actinomycin D positive control
Protocol: For these studies, the treated protozoa were incubated during 24 h, at 25°C.
After to treat 1 × 10^7 promastigote forms with […] actinomycin D (positive control – Sigma–Aldrich®), isolated miltefosine and BZTS with miltefosine, the samples were washed two times with PBS 0.01 M and incubated. Cell volume was measured on BD FACSCalibur flow cytometer and 10,000 events were analyzed by CellQuest Pro software.

[10] = Cytotoxicity on J774.A1 macrophages (MTT; alone and checkerboard combination); assay type: cell-based, Murine; conditions: mouse, J774.A1 macrophages, pH 7.6, isolated drug, ± SD, read-out: CC50 J774.A1 Macrophage
Source text: as §2

[11] = Hemolysis assay (hemoglobin release; alone and checkerboard combination); conditions: sheep, 6% erythrocyte suspension from defibrinated sheep blood
Protocol: as §3

[12] = tested on: L. amazonensis promastigote; assay: Phosphatidylserine exposure (Annexin-V-FITC / PI), flow cytometry; assay type: cell-based, Leishmania amazonensis; conditions: 24 h; miltefosine 173.32 μM; BZTS 13.86 μM + miltefosine 37.78 μM; CCCP 100 μM
Protocol: For these studies, the treated protozoa were incubated during 24 h, at 25°C. […] At the end of 24 h, the samples were washed in 0.01 M PBS and resuspended in 100 μL of binding buffer (140 mM NaCl; 5 mM CaCl2; 10 mM HEPES-Na; pH 7.4), followed by the addition of 5 μL of the Annexin-V-FITC conjugated (Molecular Probes®). After 15 min of incubation, 400 μL of binding buffer and 50 μL of PI were added. […] Data acquisition (10,000 events) and analysis were carried out on flow cytometer BD FACSCalibur, equipped with CellQuest Pro software. Necrosis processes were identified by PI fluorescence in the cells while apoptotic cells were labeled with Annexin-V-FITC, regardless of the PI behavior.

[13] = tested on: L. amazonensis promastigote; assay: Cell membrane integrity by propidium iodide, flow cytometry; assay type: cell-based, Leishmania amazonensis; conditions: 24 h, 25°C; miltefosine 173.32 μM; BZTS + miltefosine 13.86 μM + 37.78 μM; digitonin 40 μM
Protocol: For these studies, the treated protozoa were incubated during 24 h, at 25°C. L. amazonensis promastigote cells were prepared according item 2.7. After incubation, the samples were washed in PBS 0.01 M and incubated with 50 μL of propidium iodide (PI – Sigma–Aldrich®) 2 mg/mL at 25°C, for 5 min. Membrane rupture allows the entrance of PI and its binding to cell DNA. Cell membrane integrity was measured according PI fluorescence, on BD FACSCalibur flow cytometer, in which 10,000 events were evaluated by CellQuest Pro software. Digitonin saponin 40 μM (Sigma–Aldrich®) was used as positive control and the fluorescence measurement were compared with NC fluorescence.

[14] = tested on: L. amazonensis promastigote; assay: Mitochondrial transmembrane potential (rhodamine 123), flow cytometry; assay type: cell-based, Leishmania amazonensis; conditions: 24 h; 2 × IC90
Protocol: For these studies, the treated protozoa were incubated during 24 h, at 25°C. Parasites were prepared according 2.7.1 item, including positive control. […] At the same way described above, 10,000 events were evaluated on flow cytometer BD FACSCalibur and the data were analyzed by CellQuest Pro software.

[15] = tested on: L. amazonensis promastigote; assay: Scanning electron microscopy of treated promastigotes; assay type: cell-based, Leishmania amazonensis; conditions: IC50 and IC90, 72 h, 25°C
Protocol: as §1

## 4-nitro benzaldehyde thiosemicarbazone derived from S-(-)-limonene [BZTS]
[1]
  cell volume after BZTS treatment: cell volume decrease
[2]
  NO production, infected macrophages: only in higher concentrations
[3]; treated at IC50, 24 h
  Lipid droplets (Nile Red fluorescence) vs NC: statistical significance
[3]; treated at IC90, 24 h
  Lipid droplets (Nile Red fluorescence) vs NC: statistical significance
[4]
  IC50: 8.04 ± 0.37 µM
non-infected macrophages
  NO production, non-infected macrophages: induced the NO production
[5]
  IC50: 4.16 ± 0.78 µM
  IC90: 13.9 µM
J774.A1 macrophages
  CC50: 87.5 ± 9.07 µM
[6]
  Annexin-V-FITC after BZTS treatment: positive results
erythrocytes
  CC50: > 500 µM
[7]
  IC50: 6.99 ± 1.22 µM
[8]
  Ultrastructure changes by TEM: mitochondrion alterations, like swelling and concentric membranes inner mitochondria

## Cc1c2oc3c(C)ccc(C(=O)N[C@@H]4C(=O)N[C@H](C(C)C)C(=O)N5CCC[C@H]5C(=O)N(C)CC(=O)N(C)[C@@H](C(C)C)C(=O)O[C@@H]4C)c3nc-2c(C(=O)N[C@@H]2C(=O)N[C@H](C(C)C)C(=O)N3CCC[C@H]3C(=O)N(C)CC(=O)N(C)[C@@H](C(C)C)C(=O)O[C@@H]2C)c(N)c1=O [Actinomycin D] (I: T[dV]P[Sar][NMeV] / II: T[dV]P[Sar][NMeV]; ester I:1-I:C, II:1-II:C; linker I:N-II:N via Actinocin(9to1))
[9]
  cells with volume reduction compared to untreated parasites: 51.95%

## C[C@@H]1[C@H](O)[C@@H](C)/C=C/C=C/C=C/C=C/C=C/C=C/C=C/[C@H](O[C@@H]2O[C@H](C)[C@@H](O)[C@H](N)[C@@H]2O)C[C@@H]2O[C@](O)(C[C@@H](O)C[C@@H](O)[C@H](O)CC[C@@H](O)C[C@@H](O)CC(=O)O[C@H]1C)C[C@H](O)[C@H]2C(=O)O [Amphotericin B]
[4]; Leishmania amazonensis
  IC50: 0.43 ± 0.19 µM
[10]
  CC50 at 48 h: 3.74 ± 0.59 µM
[11]
  CC50 at 2 h: 51.8 ± 4.34 µM

## N#CC(C#N)=NNc1cccc(Cl)c1 [CCCP, carbonyl cyanide 3-chlorophenylhydrazone]
[12]
  cells in late apoptotic process, Annexin-V-FITC and PI fluorescence (upper right quadrant): 39.98%
  cells with only Annexin-V-FITC label (lower right quadrant): 5.25%

## CCCCCCCCCCCCCCCCOP(=O)([O-])OCC[N+](C)(C)C [Miltefosine, hexadecyl-phosphocholine]
[2]
  NO production, infected macrophages: NO production increased from low concentration
[13]
  PI fluorescence (cells that lost plasma membrane integrity): 81.18%
[9]
  cells with volume reduction compared to untreated parasites: 10.45%
[3]; treated at IC90, 24 h
  Lipid droplets (Nile Red fluorescence) vs NC: statistical significance
[4]; Leishmania amazonensis
  IC50: 0.79 ± 0.48 µM
non-infected macrophages
  NO production, non-infected macrophages: induced the NO production
[5]; Leishmania amazonensis
  IC50: 20.8 ± 0.25 µM
  IC90: 86.7 µM
[14]
  Rh 123 fluorescence intensity (in words): strong decrease
[10]
  CC50 at 48 h: 55.1 ± 1.97 µM
[15]
  Morphologic alterations by SEM: changes on surface cell and reduction of the flagellum length
[11]
  CC50 at 2 h: 21.4 ± 0.75 µM
[7]; Leishmania amazonensis, Peritoneal macrophage
  IC50: 1.82 ± 0.2 µM
[8]
  Ultrastructure changes by TEM: Disruption of cytoplasmic membrane
